Source: US4590203A, “Derivatives of thiophene-2-carboxylic acid and their pharmaceutically acceptable acid or base addition salts and use in treatment of conditions caused by thromboxane A2” (Laevosan-Gesellschaft m.b.H. & Co. KG, priority 1982, dated 1986)

Assays:
[1] = target: T1, thromboxane synthetase (Homo sapiens, UniProt P24557); assay: inhibition of thromboxane (TX) formation in thrombin stimulated washed platelets, TXB2 specific radioimmunoassay; format: cell-based; conditions: for IC50: 0,6 IU/ml thrombin stimulated human washed platelets, TXB2 specific radioimmunoassay; for inhibition of TXB2-formation: concentration not given; for specificity as inhibitor of thromboxane synthetase: in vitro-study, inhibition of TX formation on platelet aggregation
T1 construct: thrombin stimulated human washed platelets; endogenous in cells; host or cells: human washed platelets
T1 sequence (P24557 1-533): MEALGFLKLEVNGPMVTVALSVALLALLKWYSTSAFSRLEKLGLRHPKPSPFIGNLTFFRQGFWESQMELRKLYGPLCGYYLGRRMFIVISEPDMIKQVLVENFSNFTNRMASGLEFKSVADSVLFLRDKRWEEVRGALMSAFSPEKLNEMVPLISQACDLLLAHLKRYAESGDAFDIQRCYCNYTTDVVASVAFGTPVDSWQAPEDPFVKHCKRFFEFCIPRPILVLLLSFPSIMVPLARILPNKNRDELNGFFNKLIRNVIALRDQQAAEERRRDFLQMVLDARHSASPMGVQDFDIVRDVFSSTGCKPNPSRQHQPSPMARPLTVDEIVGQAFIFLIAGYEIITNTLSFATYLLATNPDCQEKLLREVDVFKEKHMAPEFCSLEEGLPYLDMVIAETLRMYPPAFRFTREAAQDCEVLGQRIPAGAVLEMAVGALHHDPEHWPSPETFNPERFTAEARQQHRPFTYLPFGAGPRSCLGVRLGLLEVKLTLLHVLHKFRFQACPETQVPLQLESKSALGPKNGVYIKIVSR
Protocol: (§1) In 0,6 IU/ml thrombin stimulated human washed platelets the IC50 (μM) for inhibition of TX formation (measured by TXB2 specific radioimmunoassay) was 1,1 for LG 82-4-00 and 1,3 for LG 82-4-01. The two substances inhibited TXB2 -formation and 1-2 μg/ml collagen induced platelet aggregation by more than 95%.

[2] = test system: platelet aggregation; assay: collagen induced platelet aggregation; format: cell-based, human; conditions: 1-2 μg/ml collagen; concentration not given
Protocol: as §1

[3] = test system: platelet aggregation; assay: proaggregatory activity and primary wave ADP aggregation; format: cell-based
Excerpt: Neither LG 82-4-00 nor LG 82-4-01 had vasoconstrictor, proaggregatory or antagonistic activity or affected primary wave ADP aggregation (P >0,05).

Compound | IC50 [1] | inhibition of TXB2-formation [1] | specificity as inhibitor of thromboxane synthetase [1] | inhibition of collagen induced platelet aggregation [2] | proaggregatory activity [3]
Cl.O=C(O)c1ccc(OCCn2ccnc2)s1 [LG 82-4-00, 5-[2-(1-Imidazolyl)-1-ethoxy]thiophene-2-carboxylic acid hydrochloride] | 1100 nM | more than 95% | specific inhibitors of thromboxane synthetase | more than 95% | Neither
Cl.O=C(O)c1cc(Cl)c(OCCn2ccnc2)s1 [LG 82-4-01, 4-Chloro-5-[2-(1-imidazolyl)-1-ethoxy]-thiophene-2-carboxylic acid hydrochloride] | 1300 nM | more than 95% | specific inhibitors of thromboxane synthetase | more than 95% | Neither
